In patent publication US20240390338A1, “METHODS FOR TREATING NEUROGENERATIVE DISEASES” (PTC THERAPEUTICS, INC., priority 2021, published 2024):

tested on: MAPT 3R mRNA; assay: RT-qPCR Assay to Quantify MAPT 3R mRNA in Cells; assay type: cell-based; details: cells incubated with compound 24 h; 7-point concentration curve; MAPT minigene 3R RT-qPCR with GAPDH assay; EC2X interpolated from dose response curve
Protocol: RT-qPCR Assay to Quantify MAPT 3R mRNA in Cells
Test compounds were serially diluted 3.16-fold in 100% DMSO to generate a 7-point concentration curve. Aliquots of 0.5 μL of diluted compounds were transferred to a 96-well flat bottom plate by a liquid handler. An aliquot of 0.5 μL DMSO was also transferred to separate wells and used as controls. Duplicate samples were set up for each compound concentration and for the DMSO control.
Cells were thawed and incubated in cell culture media (DMEM, 10% FBS, and 1% antibiotic cocktail) for 72 h. Cells were trypsinized, counted, and re-suspended to a concentration of 200,000 cells/mL in cell culture media. A 100 μL aliquot of the cell suspensions were plated at 20,000 cells per well in the compound containing 96 well microtiter plate and incubated for in a cell culture incubator (37° C., 5% CO2, 100% relative humidity).
After 24 h, media was aspirated from the cells and 20 μL of the RCL2 lysis buffer (10 mM Tris-HCL pH 7.4, 150 mM NaCl, 0.33% IGEPAL® CA-630) was added to each well and incubated at RT for 1 min. Chilled nuclease free water (140 μL per well) was added and the plates were immediately transferred on ice. After 1 min on ice, plates were frozen at −80° C. overnight.
Preparation of RT-qPCR Reaction Mixture:
An aliquot of 4 μL/well of the cell lysates was transferred using the liquid handler to the Armadillo 384-Well PCR plate containing 6 μL/well of the RT-qPCR reaction mixture that was prepared as detailed above. The plates were then sealed with MicroAmp™ Optical Adhesive Film followed by spinning down for 1 min and placed in the CFX384 thermocycler (BioRad).
The RT-qPCR was carried out at the following temperatures for the indicated time: • Step 1: 48° C. (30 min) • Step 2: 95° C. (10 min) • Step 3: 95° C. (15 sec) • Step 4: 60° C. (1 min); then, repeated Steps 3 and 4 for a total of 40 cycles.
The percent exon 4 skipping was calculated for each dose of compound treatment using Equations 1 and 2.
Data were fit to a dose response curve and the EC2X was interpolated using XLfit® statistical and curve fitting package.
An EC2X value between >1000 nM and ≤1500 nM is indicated by two stars (**). An EC2X value between >500 nM and ≤1000 nM is indicated by three stars (***). An EC2X value between >50 nM and ≤500 nM is indicated by four stars (****). An EC2X value ≤50 nM is indicated by five stars (*****).

SMILES	EC (2-fold increase) [µM]
C[C@H](N)Cc1cc2nc(Cl)cc(NCc3ccco3)c2s1 [Cpd 16, 2-[(2S)-2-aminopropyl]-5-chloro-N-[(furan-2-yl)methyl]thieno[3,2-b]pyridin-7-amine]	0.05 to 0.5
N[C@@H](CO)Cc1cc2nc(Cl)cc(NCc3ccco3)c2s1 [Cpd 17, (2R)-2-amino-3-(5-chloro-7-{[(furan-2-yl)methyl]amino}thieno[3,2-b]pyridin-2-yl)propan-1-ol]	1 to 1.5
Cc1c(C[C@H](C)N)sc2c(NCc3ccco3)cc(Cl)nc12 [Cpd 18, 2-[(2S)-2-aminopropyl]-5-chloro-N-[(furan-2-yl)methyl]-3-methylthieno[3,2-b]pyridin-7-amine]	≤ 0.05
Cc1c(C[C@H](C)N)sc2c(NCc3ccccc3F)cc(Cl)nc12 [Cpd 29, 2-[(2S)-2-aminopropyl]-5-chloro-N-[(2-fluorophenyl)methyl]-3-methylthieno[3,2-b]pyridin-7-amine]	≤ 0.05
Cc1c(C[C@H](C)N)sc2c(NCc3ccco3)ccnc12 [Cpd 34, 2-[(2S)-2-aminopropyl]-N-[(furan-2-yl)methyl]-3-methylthieno[3,2-b]pyridin-7-amine]	0.05 to 0.5
C[C@H](N)Cc1sc2c(NCc3ccco3)cc(Cl)nc2c1Cl [Cpd 36, 2-[(2S)-2-aminopropyl]-3,5-dichloro-N-[(furan-2-yl)methyl]thieno[3,2-b]pyridin-7-amine]	≤ 0.05
N[C@@H](CO)Cc1sc2c(NCc3ccco3)cc(Cl)nc2c1Cl [Cpd 39, (2R)-2-amino-3-(3,5-dichloro-7-{[(furan-2-yl)methyl]amino}thieno[3,2-b]pyridin-2-yl)propan-1-ol]	0.05 to 0.5
COC[C@H](N)Cc1sc2c(NCc3ccco3)cc(Cl)nc2c1Cl [Cpd 40, 2-[(2R)-2-amino-3-methoxypropyl]-3,5-dichloro-N-[(furan-2-yl)methyl]thieno[3,2-b]pyridin-7-amine]	≤ 0.05
N[C@@H](CO)Cc1sc2c(NCc3ccco3)cc(Cl)nc2c1Br [Cpd 41, (2R)-2-amino-3-(3-bromo-5-chloro-7-{[(furan-2-yl)methyl]amino}thieno[3,2-b]pyridin-2-yl)propan-1-ol]	0.5 to 1
CN[C@@H](C)Cc1sc2c(NCc3ccco3)cc(Cl)nc2c1C [Cpd 42, 5-chloro-N-[(furan-2-yl)methyl]-3-methyl-2-[(2S)-2-(methylamino)propyl]thieno[3,2-b]pyridin-7-amine]	0.5 to 1
COC[C@H](N)Cc1sc2c(NCc3ccco3)cc(Cl)nc2c1Br [Cpd 44, 2-[(2R)-2-amino-3-methoxypropyl]-3-bromo-5-chloro-N-[(furan-2-yl)methyl]thieno[3,2-b]pyridin-7-amine]	≤ 0.05
COC[C@H](N)Cc1sc2c(NCc3ccco3)cc(Cl)nc2c1C [Cpd 45, 2-[(2R)-2-amino-3-methoxypropyl]-5-chloro-N-[(furan-2-yl)methyl]-3-methylthieno[3,2-b]pyridin-7-amine]	≤ 0.05
C[C@H](N)Cc1sc2c(NCc3ccco3)cc(Cl)nc2c1C1CC1 [Cpd 51, 2-[(2S)-2-aminopropyl]-5-chloro-3-cyclopropyl-N-[(furan-2-yl)methyl]thieno[3,2-b]pyridin-7-amine]	≤ 0.05
C[C@H](N)Cc1sc2c(NCc3cccs3)cc(Cl)nc2c1Cl [Cpd 52, 2-[(2S)-2-aminopropyl]-3,5-dichloro-N-[(thiophen-2-yl)methyl]thieno[3,2-b]pyridin-7-amine]	≤ 0.05
C[C@H](N)Cc1sc2c(NCc3cccs3)cc(Cl)nc2c1Br [Cpd 53, 2-[(2S)-2-aminopropyl]-3-bromo-5-chloro-N-[(thiophen-2-yl)methyl]thieno[3,2-b]pyridin-7-amine]	≤ 0.05
Cc1c(C[C@H](C)N)sc2c(NCc3cccs3)cc(C#N)nc12 [Cpd 54, 2-[(2S)-2-aminopropyl]-3-methyl-7-{[(thiophen-2-yl)methyl]amino}thieno[3,2-b]pyridine-5-carbonitrile]	0.05 to 0.5

SMILES	EC (2-fold increase) [µM]
Cc1c(C[C@H](C)N)sc2c(NCc3nccs3)cc(Cl)nc12 [Cpd 57, 2-[(2S)-2-aminopropyl]-5-chloro-3-methyl-N-[(1,3-thiazol-2-yl)methyl]thieno[3,2-b]pyridin-7-amine]	≤ 0.05
Cc1c(C[C@@H](N)CO)sc2c(NCc3ccco3)cc(Cl)nc12 [Cpd 58, (2R)-2-amino-3-(5-chloro-7-{[(furan-2-yl)methyl]amino}-3-methylthieno[3,2-b]pyridin-2-yl)propan-1-ol]	≤ 0.05
Cc1c(C[C@@H](N)CC(C)C)sc2c(NCc3cccs3)cc(Cl)nc12 [Cpd 61, 2-[(2S)-2-amino-4-methylpentyl]-5-chloro-3-methyl-N-[(thiophen-2-yl)methyl]thieno[3,2-b]pyridin-7-amine]	≤ 0.05
N[C@H](CF)Cc1sc2c(NCc3cccs3)cc(Cl)nc2c1Br [Cpd 63, 2-[(2S)-2-amino-3-fluoropropyl]-3-bromo-5-chloro-N-[(thiophen-2-yl)methyl]thieno[3,2-b]pyridin-7-amine]	1 to 1.5
CC[C@H](N)Cc1sc2c(NCc3cccs3)cc(Cl)nc2c1Br [Cpd 73, 2-[(2S)-2-aminobutyl]-3-bromo-5-chloro-N-[(thiophen-2-yl)methyl]thieno[3,2-b]pyridin-7-amine]	≤ 0.05
N[C@@H](CCF)Cc1sc2c(NCc3cccs3)cc(Cl)nc2c1Br [Cpd 74, 2-[(2S)-2-amino-4-fluorobutyl]-3-bromo-5-chloro-N-[(thiophen-2-yl)methyl]thieno[3,2-b]pyridin-7-amine]	≤ 0.05
N[C@@H](CF)Cc1sc2c(NCc3cccs3)cc(Cl)nc2c1Br [Cpd 76, 2-[(2R)-2-amino-3-fluoropropyl]-3-bromo-5-chloro-N-[(thiophen-2-yl)methyl]thieno[3,2-b]pyridin-7-amine]	≤ 0.05
CC[C@H](N)Cc1sc2c(NCc3cccs3)cc(Cl)nc2c1Cl [Cpd 83, 2-[(2S)-2-aminobutyl]-3,5-dichloro-N-[(thiophen-2-yl)methyl]thieno[3,2-b]pyridin-7-amine]	≤ 0.05
Cc1c(C[C@@H](N)CF)sc2c(NCc3cccs3)cc(Cl)nc12 [Cpd 91, 2-[(2R)-2-amino-3-fluoropropyl]-5-chloro-3-methyl-N-[(thiophen-2-yl)methyl]thieno[3,2-b]pyridin-7-amine]	≤ 0.05
Cc1c(C[C@@H](N)CCF)sc2c(NCc3cccs3)cc(Cl)nc12 [Cpd 92, 2-[(2S)-2-amino-4-fluorobutyl]-5-chloro-3-methyl-N-[(thiophen-2-yl)methyl]thieno[3,2-b]pyridin-7-amine]	0.05 to 0.5
N[C@@H](CCF)Cc1sc2c(NCc3ccco3)cc(Cl)nc2c1Cl [Cpd 93, 2-[(2S)-2-amino-4-fluorobutyl]-3,5-dichloro-N-[(furan-2-yl)methyl]thieno[3,2-b]pyridin-7-amine]	0.05 to 0.5
N[C@@H](CF)Cc1sc2c(NCc3ccco3)cc(Cl)nc2c1Cl [Cpd 94, 2-[(2R)-2-amino-3-fluoropropyl]-3,5-dichloro-N-[(furan-2-yl)methyl]thieno[3,2-b]pyridin-7-amine]	≤ 0.05
Cc1c(C[C@@H](N)CCF)sc2c(NCc3ccco3)cc(Cl)nc12 [Cpd 95, 2-[(2S)-2-amino-4-fluorobutyl]-5-chloro-N-[(furan-2-yl)methyl]-3-methylthieno[3,2-b]pyridin-7-amine]	≤ 0.05
N[C@@H](CCF)Cc1sc2c(NCc3ccco3)cc(Cl)nc2c1Br [Cpd 97, 2-[(2S)-2-amino-4-fluorobutyl]-3-bromo-5-chloro-N-[(furan-2-yl)methyl]thieno[3,2-b]pyridin-7-amine]	≤ 0.05
N#CC[C@H](N)Cc1sc2c(NCc3ccco3)cc(Cl)nc2c1Br [Cpd 103, (3S)-3-amino-4-(3-bromo-5-chloro-7-{[(furan-2-yl)methyl]amino}thieno[3,2-b]pyridin-2-yl)butanenitrile]	0.05 to 0.5
